One assay has as its system RBL2H3 cells. Kind of assay: Degranulation assay: β-hexosaminidase release during immune complex mediated degranulation. Conditions: Rattus norvegicus, RBL-2H3; for inhibition at 1 µM: read-out: Degranulation % inhibition at 1 μM; for EC50: read-out: Degranulation EC50. In kind it is cell-based, rat. As for the experimental part: The objective of this assay was to examine by Fluorescence method the effect of compounds on β-hexosaminidase release during immune complex mediated degranulation in RBL2H3 cells. Compounds were tested for their ability to inhibit the ability of this immune complex to mediate β-hexosaminidase release, in an enzyme assay with […] as substrate. […] Emission 460 nm). [table] [table] RBL2H3 cells were maintained in MEM complete media containing 10% FBS at 70%-80% confluence in a mammalian cell culture CO2 incubator with 5% CO2 at 37° C. 2×10^5 cells/well were plated in 1 mL of complete media and incubated for 5 hours for cell attachment. Complete media was replaced with 1 mL of serum free MEM media containing 1.2 μg/mL of anti-DNP rat IgE as sensitizing agent and further incubated overnight with 5% CO2 at 37° C. […] Cells were further stimulated with 5 μg/mL of DNP-BSA for 60 minutes. Plates were centrifuged for 5 minutes at 1000 rpm and 25 μL of culture supernatant was transferred from each assay well into a 96 well black coated plate. 25 μL β-NAG substrate was added to this mixture and incubated at room temperature for 30 minutes. The reaction was terminated with 100 μL of stop solution and fluorescence was monitored. (Excitation 355 nm; Emission 460 nm) See, Sanderson, (2010), Cellular Immunology, 262(1): 28-34 and Silverman, (2006) MCB, 26(5):1826-1838, which are incorporated herein by reference. The % release of β-Hexosaminidase for the test compound was calculated using the following formula: RBL2H3 cells were maintained in MEM complete media containing 10% FBS at 70-80% confluence in a mammalian cell culture CO2 incubator with 5% CO2 at 37° C. 5×10^4 cells/well were plated in 200 μL of complete media containing 0.3 μg/mL of anti-DNP rat IgE as sensitizing agent for 24 hours at 37° C. & 5% CO2. The following day, cells were washed twice with PIPES buffer for 10 minutes at 37° C. and replenished with serum free MEM media. Cells were treated with various concentrations of test compounds (in 0.5% DMSO) for 15 minutes at 37° C. and 5% CO2. The cells were further stimulated with 0.1 μg/mL of DNP-BSA for 45 minutes. The plates were spun for 5 minutes at 2000 rpm and 25 μL of culture supernatant was then transferred from each assay well into a 96 well black coated plate. […] β-NAG substrate was added and incubated at RT for 30 minutes. After incubation with substrate, 150 μL of stop solution was added and fluorescence was monitored. (Excitation 355 nm; Emission 460 nm). See, Yamamoto, JPET, 306(3):1174-1181 (2003) and Taylor, MCB, 15(8): 4149-4157 (1995), which are herein incorporated by reference. Release of β-hexosaminidase during the degranulation process by immune complex mediated FcεRI stimulation is through the SYK pathway. The % inhibition of β-hexosaminidase release by Syk inhibitor gives information with regard to its Syk inhibition potency.

A further assay concerns the target JAK2 (Homo sapiens (Human), UniProt O60674). Nature of the assay: Inhibition of enzymatic JAK2 kinase activity (TR-FRET). Type of assay: biochemical. Conditions: read-out: IC50 JAK. The method, boiled down: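 TR-FRET read-out (Eu antibody donor, Ulight poly Glu-Tyr acceptor, 665/615 nm ratio) after a 60 min RT kinase reaction with ATP, begun following 30 min compound–enzyme preincubation. Stopped by EDTA; inhibition expressed as 100 minus % activity of positive control.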
(In general: TR-FRET usually uses a lanthanide donor and a delayed reading to cut background.)

In assay [1] the target is Syk (356-635 amino acids) catalytic domain (Homo sapiens (Human), UniProt P43405). Nature of the assay: Inhibition of enzymatic Syk kinase activity (radiometric). Type of assay: biochemical. Conditions: read-out: IC50 Syk. In a few lines:
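Radiometric filter-binding format: 32P transfer from γ-32P-ATP onto pG4T, scintillation-counted after acid washes of P81 paper. Syk kinase domain (356-635), 0.035–7.5 ng per reaction, was exposed to compound for 30 minutes at room temperature before a 10-minute, 30° C. reaction with ATP (100 μM stock). Inhibition derived from counts with versus without compound.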

Where [2] appears, read: Assay Protocol A (24 well format).
Where [3] appears, read: Assay Protocol B (96 well format).

The record followed here is US10183944B2 (Asana Biosciences, LLC, priority 2011, dated 2019).

Structures are written as SMILES. Where a name gives a salt, the structure may show the parent alone. Read-outs that look alike come from different tables or passages of the source. Some results are limits rather than exact numbers.

Sequence of JAK2 (O60674 808-1132): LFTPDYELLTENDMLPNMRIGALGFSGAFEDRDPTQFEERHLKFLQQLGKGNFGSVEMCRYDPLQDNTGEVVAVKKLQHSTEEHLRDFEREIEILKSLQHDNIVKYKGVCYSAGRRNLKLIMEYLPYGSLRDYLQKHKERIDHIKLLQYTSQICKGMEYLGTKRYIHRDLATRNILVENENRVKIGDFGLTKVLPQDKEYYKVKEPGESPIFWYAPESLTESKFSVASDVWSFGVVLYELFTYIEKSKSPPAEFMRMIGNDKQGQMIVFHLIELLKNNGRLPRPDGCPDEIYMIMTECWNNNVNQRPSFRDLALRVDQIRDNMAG

Turning to `NCC(=O)N1CCN(c2ccc(Nc3nc(-c4ccccc4)nc4cn[nH]c(=O)c34)cc2)CC1` [Example 11, 4-(4-(4-(2-aminoacetyl)piperazin-1-yl)phenylamino)-2-phenylpyrimido[4,5-d]pyridazin-5(6H)-one hydrochloride], the inhibition at 1 µM in the assay with RBL2H3 cells (setting [2]) worked out at 100%. For the same molecule, the figures for the IC50 (at JAK2; in assay [1] (hydrochloride)) were under 0.1 µM and under 0.05 µM, respectively.
For the molecule `O=c1[nH]ncc2nc(-c3ccsc3)nc(Nc3ccc(CN4CCNCC4)cc3)c12` [Example 24, 4-(4-(piperazin-1-ylmethyl)phenylamino)-2-(thiophen-3-yl) pyrimido[4,5-d]pyridazin-5(6H)-one hydrochloride], in the assay with RBL2H3 cells (setting [3]), the inhibition at 1 µM stood at 83%. Besides, the 50% inhibitory concentration (IC50) at JAK2 was under 0.1 µM; in assay [1], under 0.01 µM.
As for `O=C(O)C1CC12CCN(c1nc(Nc3ccc(CN4CCNCC4)cc3)c3c(=O)[nH]ncc3n1)CC2` (stereo not drawn) [Example 25, 6-(5-oxo-4-(4-(piperazin-1-ylmethyl)phenylamino)-5,6-dihydropyrimido[4,5-d]pyridazin-2-yl)-6-azaspiro[2.5]octane-1-carboxylic acid hydrochloride], the inhibition at 1 µM in the assay with RBL2H3 cells (setting [2]) was determined as 79%. For the same molecule, the 50% inhibitory concentration (IC50) at JAK2 is under 0.1 µM; in assay [1], under 0.05 µM.
As to `CCN1CCN(c2ccc(Nc3nc(N4CCOCC4)nc4cn[nH]c(=O)c34)cc2)CC1` [Example 26, 4-(4-(4-ethylpiperazin-1-yl)phenylamino)-2-morpholinopyrimido[4,5-d]pyridazin-5(6H)-one], the inhibition at 1 µM in the assay on RBL2H3 cells (setting [3]) was determined as 67%. Besides, the figures for the concentration for half-maximal inhibition (IC50) (on JAK2; in assay [1]) were under 0.1 µM and under 0.01 µM, respectively.
Taken in the same sequence, the figures for `O=c1[nH]ncc2nc(N3CCCCC3)nc(Nc3ccc(CN4CCNCC4)cc3)c12` [Example 30, 4-(4-(piperazin-1-ylmethyl)phenylamino)-2-(piperidin-1-yl)pyrimido[4,5-d]pyridazin-5(6H)-one hydrochloride] were 99%, under 0.05 µM and under 0.05 µM.
The matching figures for `O=c1[nH]ncc2nc(-c3ccc4c(c3)OCO4)nc(Nc3ccc(CN4CCNCC4)cc3)c12` [Example 33, 2-(benzo[d][1,3]dioxol-5-yl)-4-(4-(piperazin-1-ylmethyl)phenylamino) pyrimido[4,5-d]pyridazin-5(6H)-one hydrochloride]: 58%, over 0.1 µM and under 0.05 µM.
Consider `O=C(O)CC1CCN(c2ccc(Nc3nc(-c4ccccc4)nc4cn[nH]c(=O)c34)cc2)CC1` [Example 34, 2-(1-(4-(5-oxo-2-phenyl-5,6-dihydropyrimido[4,5-d]pyridazin-4-ylamino)phenyl)piperidin-4-yl)acetic acid], for which, in the assay on RBL2H3 cells (setting [3]), the inhibition at 1 µM came out at 80% and the EC50 worked out at 0.378 µM. For the same molecule, on JAK2, the IC50 was under 0.05 µM. In addition, the IC50 in assay [1] is under 0.05 µM.
On to `O=C(O)C1CCN(Cc2ccc(Nc3nc(-c4ccccc4)nc4cn[nH]c(=O)c34)cc2)CC1` [Example 35, 1-(4-(5-oxo-2-phenyl-5,6-dihydropyrimido[4,5-d]pyridazin-4-ylamino)benzyl)piperidine-4-carboxylic acid], for which the inhibition at 1 µM with RBL2H3 cells (setting [3]) was 19%. The IC50 (on JAK2; in assay [1]) was under 0.05 µM each time.
As to `O=C(O)C1CC12CCN(c1ccc(Nc3nc(-c4ccsc4)nc4cn[nH]c(=O)c34)cc1)CC2` (stereo not drawn) [Example 39, 6-(4-(5-oxo-2-(thiophen-3-yl)-5,6-dihydropyrimido[4,5-d]pyridazin-4-ylamino)phenyl)-6-azaspiro[2.5]octane-1-carboxylic acid], the inhibition at 1 µM with RBL2H3 cells (setting [3]) stood at 100%. The half-inhibitory concentration (IC50) (at JAK2; in assay [1]) was under 0.05 µM throughout.
Regarding `O=C(O)CC1CCN(c2nc(Nc3ccc(CN4CCNCC4)cc3)c3c(=O)[nH]ncc3n2)CC1` [Example 43, 2-(1-(5-oxo-4-((4-(piperazin-1-ylmethyl)phenyl)amino)-5,6-dihydropyrimido[4,5-d]pyridazin-2-yl)piperidin-4-yl)acetic acid hydrochloride], the inhibition at 1 µM in the assay with RBL2H3 cells (setting [3]) was determined as 13%. The 50% inhibitory concentration (IC50) is under 0.1 µM on JAK2 and under 0.05 µM in assay [1].
Take `COc1cccc(-c2nc(Nc3ccc(N4CCC5(CC4)CC5C(=O)O)cc3)c3c(=O)[nH]ncc3n2)c1` (stereo not drawn) [Example 47, 6-(4-((2-(3-methoxyphenyl)-5-oxo-5,6-dihydropyrimido[4,5-d]pyridazin-4-yl)amino)phenyl)-6-azaspiro[2.5]octane-1-carboxylic acid]: in the assay with RBL2H3 cells (setting [3]), the inhibition at 1 µM stood at 100% and the concentration for a half-maximal effect (EC50) was determined as 0.132 µM. On JAK2, the IC50 was under 0.1 µM. The IC50 in assay [1] was under 0.1 µM.
On to `O=c1[nH]ncc2nc(N3CCCC3)nc(Nc3ccc(CN4CCNCC4)cc3)c12` [Example 48, 4-((4-(piperazin-1-ylmethyl)phenyl)amino)-2-(pyrrolidin-1-yl)pyrimido[4,5-d]pyridazin-5(6H)-one hydrochloride], for which the inhibition at 1 µM in the assay with RBL2H3 cells (setting [3]) is 100%. The IC50 (on JAK2; in assay [1]) was under 0.1 µM each time.
On to `CCOc1nc(Nc2ccc(CN3CCNCC3)cc2)c2c(=O)[nH]ncc2n1` [Example 50, 2-ethoxy-4-((4-(piperazin-1-ylmethyl)phenyl)amino)pyrimido[4,5-d]pyridazin-5(6H)-one hydrochloride], for which the inhibition at 1 µM with RBL2H3 cells (setting [3]) amounted to 49%. The IC50 on JAK2 was over 0.1 µM; in assay [1] it was under 0.01 µM.
Take `O=c1[nH]ncc2nc(N3CCCCCC3)nc(Nc3ccc(CN4CCNCC4)cc3)c12` [Example 52, 2-(azepan-1-yl)-4-((4-(piperazin-1-ylmethyl)phenyl)amino)pyrimido[4,5-d]pyridazin-5(6H)-one hydrochloride]: in the assay on RBL2H3 cells (setting [3]), the inhibition at 1 µM was 100% and the concentration for a half-maximal effect (EC50) turned out to be 0.001 µM. The IC50 on JAK2 was under 0.01 µM. In assay [1], the IC50 was under 0.01 µM.
`CC(C)N(c1nc(Nc2ccc(CN3CCNCC3)cc2)c2c(=O)[nH]ncc2n1)C(C)C` [Example 54, 2-(diisopropylamino)-4-((4-(piperazin-1-ylmethyl)phenyl)amino)pyrimido[4,5-d]pyridazin-5(6H)-one hydrochloride]: the inhibition at 1 µM with RBL2H3 cells (setting [3]) turned out to be 100%. The concentration giving a half-maximal response (EC50) in the assay with RBL2H3 cells (setting [3]) came to 0.013 µM. The 50% inhibitory concentration (IC50) (at JAK2; in assay [1]) was under 0.01 µM in each case.
`O=c1[nH]ncc2nc(N3CCCCCC3)nc(Nc3ccc(N4CCOCC4)cc3)c12` [Example 60, 2-(azepan-1-yl)-4-((4-morpholinophenyl)amino)pyrimido[4,5-d]pyridazin-5(6H)-one]: the inhibition at 1 µM in the assay with RBL2H3 cells (setting [3]) amounted to 100%. Besides, the 50% effective concentration (EC50) in the assay on RBL2H3 cells (setting [3]) turned out to be 0.018 µM. Moreover, the IC50 (at JAK2; in assay [1]) was under 0.01 µM throughout.
For `N#CCC1CCN(c2nc(Nc3ccc(N4CCC(CC(=O)O)CC4)cc3)c3c(=O)[nH]ncc3n2)CC1` [Example 71, 2-(1-(4-((2-(4-(cyanomethyl)piperidin-1-yl)-5-oxo-5,6-dihydropyrimido[4,5-d]pyridazin-4-yl)amino)phenyl)piperidin-4-yl)acetic acid], in the assay with RBL2H3 cells (setting [3]), the inhibition at 1 µM is 65% and the EC50 came out at 1.02 µM. On JAK2, the concentration for half-maximal inhibition (IC50) was over 0.1 µM. For the same molecule, the half-inhibitory concentration (IC50) in assay [1] was over 0.1 µM.

One may read the inhibition as the change of the read-out against control, counted positive when it falls. By IC50 is commonly meant the concentration that gives 50% inhibition. One may read the EC50 as the midpoint of the concentration-response curve.
